A short description of series [1]: Cytotoxicity against rat RIN5F cells at 225 uM. It counts as cell-based.
The nature of series [2]: Inhibition of amylin-induced cytotoxicity in rat RIN5F cells at 225 uM after 24 hrs by MTT assay relative to control. It counts as functional. Details: scale not given: the % may be the effect or the level left. (Formazan colour is commonly taken as a measure of viable cells.)

Consider ten compounds from ChEMBL document CHEMBL1156876, “Design and study of peptide-based inhibitors of amylin cytotoxicity” (Bioorg Med Chem Lett, 2010).

Non-standard residues stand in square brackets, D forms with d. Residues, ends and D or L forms follow the SMILES beside them. NMeH = CN[C@@H](Cc1c[nH]cn1)C(=O)O; NMeF = CN[C@@H](Cc1ccccc1)C(=O)O; NMeI = CC[C@H](C)[C@H](NC)C(=O)O; NMeT = CN[C@H](C(=O)O)[C@@H](C)O; NMeN = CN[C@@H](CC(N)=O)C(=O)O; NMeL = CN[C@@H](CC(C)C)C(=O)O; NMeV = CN[C@H](C(=O)O)C(C)C; NMeS = CN[C@@H](CO)C(=O)O; NMeA = CN[C@@H](C)C(=O)O; Sar = CNCC(=O)O

Regarding `CC(C)C[C@@H](C(=O)N(C)[C@@H](C)C(N)=O)N(C)C(=O)[C@H](CCCNC(=N)N)N(C)C(=O)[C@H](CCC(N)=O)N(C)C(=O)[C@@H](N)[C@H](C)O`, in series [1], the Activity entry was “Non-toxic”.
On to `CC(C)C[C@@H](C(=O)N(C)[C@H](C(=O)N(C)[C@@H](Cc1cnc[nH]1)C(=O)N(C)[C@@H](CO)C(=O)N(C)[C@@H](CO)C(N)=O)C(C)C)N(C)C(=O)[C@@H](N)Cc1ccccc1` (H-F[NMeL][NMeV][NMeH][NMeS][NMeS]-NH2), for which the Activity result in series [1] is “Non-toxic”.
As for `C[C@H](NC(=O)[C@@H](NC(=O)[C@@H](N)CC(N)=O)[C@@H](C)O)C(=O)N[C@H](C(N)=O)[C@@H](C)O` (H-NTAT-NH2), the Activity in series [2] is 25%; in series [1], “Non-toxic”.
For `CC[C@H](C)[C@@H](C(=O)N(C)[C@@H](CC(C)C)C(N)=O)N(C)C(=O)[C@H](C)N(C)C(=O)CN(C)C(=O)[C@H](Cc1ccccc1)N(C)C(=O)[C@@H](N)CC(N)=O` (H-N[NMeF][Sar][NMeA][NMeI][NMeL]-NH2), in series [1], the Activity result is given as “Non-toxic”.
Take `C[C@@H](O)[C@@H](C(=O)N(C)[C@@H](C)C(=O)N(C)[C@H](C(N)=O)[C@@H](C)O)N(C)C(=O)[C@@H](N)CC(N)=O` (H-N[NMeT][NMeA][NMeT]-NH2): the Activity entry in series [1] was “Non-toxic”.
On to `CC(C)[C@@H](C(=O)N(C)CC(=O)N(C)[C@@H](CO)C(N)=O)N(C)C(=O)[C@H](CC(N)=O)N(C)C(=O)[C@H]([C@@H](C)O)N(C)C(=O)[C@@H](N)CO` (H-S[NMeT][NMeN][NMeV][Sar][NMeS]-NH2), for which the Activity result in series [1] is “Non-toxic”.
For H-FLVHSS-NH2, the results for the Activity in series [2] and in series [1] were 20% and “Non-toxic”, respectively.
For H-NFGAIL-NH2, in that order: 50% and “Non-toxic”.
On to H-STNVGS-NH2, for which the Activity in series [2] is 18%; in series [1] it was “Non-toxic”.
Take H-TQRLA-NH2: the values for the Activity in series [2] and in series [1] were 50% and “Non-toxic”, respectively.
